Measured values from patent publication US20230313206A1, “System for inducible expression of an adapter in immune cells” (Miltenyi Biotec B.V. & Co. KG, priority 2020, published 2023).

Tests used:
Type in all cases: cell-based
CD19+ Raji cells = experiment: Cytolytic activity of anti-His adapter CAR T cells in co-culture with Raji cells and inducible anti-CD19 Fab T cells; conditions: adapter CAR T cells (E:T 2:1) and 1E4 inducible T cells, 6 days
Procedure: Anti-His Adapter CAR T cell-mediated cytotoxicity against tumor cells was assessed by the quantification of living target cells using the MACSQuant® Analyzer 10 (Miltenyi Biotec). Therefore, 1E4 GFP^+ Raji cells were seeded in 50 μL TexMACS medium (Miltenyi Biotec) in a 96-well round-bottom plate. Anti-His Adapter CAR T cells were subsequently added at an E:T ratio of 2:1 in a volume of 50 μL TexMACS medium (Miltenyi Biotec). T cell numbers were adjusted to LNGFR expression implicating equal transduced and total T cell numbers in each well. The number of untransduced T cells was adjusted to total cell numbers. 1E4 anti-CD19 Fab inducible T cells that secrete the adapter molecule, a His-tagged anti-CD19 Fab, upon induction, were added to the respective wells. His-tagged anti-CD19 Fab secretion was induced by the addition of 100 nM 4-OHT (Sigma-Aldrich) in 50 μL TexMACS (Miltenyi Biotec) at the start of the assay. The plate was centrifuged at 300 g for 1 min and incubated at 37° C., 5% C02. The specific lysis of target cells was determined 6 days after co-culture set-up. […] Next, living target cells were quantified via flow cytometry. […] Living Raji tumor cells were defined as PI^−, GFP^+ cells and specific lysis was calculated according to the following formula: % specific lysis=(1−(Raji cell count [sample]/Raji cell count [target cell]))·100%.

drug-inducible T cells = experiment: Induction of anti-CD19 Fab-His6 secretion by drug-inducible primary T cells; supernatant stained on CD19+ Raji cells; conditions: 4-OHT 0-500 nM
Procedure: Lentiviral particles encoding for the drug-inducible cassette were manufactured as described in example 1.2. Drug-inducible T cells were generated as described in example 1.3. 1E4 LNGFR positive drug-inducible T cells were seeded in 100 μL TexMACS medium (Miltenyi Biotec) supplemented with IL-7 (Miltenyi Biotec) and IL-15 (Miltenyi Biotec) in a 96 round bottom well plate. Secretion of the His6-tagged anti-CD19 Fab was induced by the addition of different concentrations of 4-OHT (0-500 nM, Sigma-Aldrich) in 100 μL TexMACS medium (Miltenyi Biotec) supplemented with IL-7 (Miltenyi Biotec) and IL-15 (Miltenyi Biotec) to each well. Untransduced T cells constitute the negative control. Cells were incubated at 37° C. and 5% C02. His6-tagged anti-CD19 Fab containing supernatant was harvested 48 h after the induction. CD19^+ Raji cells were subsequently stained using T cell supernatant and anti-His-APC as secondary antibody. Therefore, 1E5 CD19^+ Raji cells were seeded in a 96 round bottom well plate. Cells were pelleted at 300 g for 5 min and stained with 50 μL of the collected T cell supernatant for 10 min at 4° C. […] The determined mean fluorescent intensity in the APC channel was correlated to the Fab concentration by extrapolation from a standard curve. […]

[1] = test system: PD-1 expression on T cells; experiment: PD-1 expression (activation) of anti-His adapter CAR T cells in co-culture with Raji cells and inducible anti-CD19 Fab T cells; conditions: adapter CAR T cells (E:T 2:1) and 1E4 inducible T cells, day 2
Procedure: To set up the co-culture, 1E4 GFP^+ Raji cells were seeded in 50 μL TexMACS medium (Miltenyi Biotec) in a 96-well round-bottom plate. Anti-His Adapter CAR T cells were subsequently added at an E:T ratio of 2:1 in a volume of 50 μL TexMACS medium (Miltenyi Biotec). T cell numbers were adjusted to LNGFR expression implicating equal transduced and total T cell numbers in each well. The number of untransduced T cells was adjusted to total cell numbers. 1E4 anti-CD19 Fab inducible T cells that secrete the adapter molecule, a His-tagged anti-CD19 Fab, upon induction, were added to the respective wells. His-tagged anti-CD19 Fab secretion was induced by the addition of 100 nM 4-OHT (Sigma-Aldrich) in 50 μL TexMACS (Miltenyi Biotec) at the start of the assay. The plate was centrifuged at 300 g for 1 min and incubated at 37° C., 5% C02 for 2 days. Activation of T cells was analyzed by staining the cells of the co-culture with anti-PD-1-PEVio770, CD3-VioBlue, CD8-VioGreen and LNGFR-APC conjugates (Miltenyi Biotec). Therefore, the co-culture plate was centrifuged at 300 g for 5 min and cells were stained with 50 μL staining mixture composed of the PD-1 PE07, conjugate (Miltenyi Biotec) diluted in PEB for 10 min at 4° C. Cells were washed twice with 200 μL PEB (300 g, 5 min). Cells were resuspended in 100 μL PEB for subsequent flow cytometric analysis. […]

Substance: 4-hydroxytamoxifen [4-OHT]
- 4-OHT concentration at which specific lysis of CD19+ Raji cells was detected (CD19+ Raji cells): at least 1 nM
- 4-OHT concentration giving maximal specific lysis (CD19+ Raji cells): at least 10 nM
- Amount of His6-tagged anti-CD19-Fab in T cell supernatant with increasing 4-OHT concentration (drug-inducible T cells; 48 h, Fab concentration extrapolated from standard curve): increasing amounts of His6-tagged anti-CD19-Fab is detected
- Induction of His6-tagged anti-CD19-Fab secretion by inducible T cells (drug-inducible T cells; supernatant harvested 48 h after induction): strictly dependent on the presence of the inducer drug 4-OHT
- 4-OHT concentration at which PD-1 expression on T cells was detected [1]: at least 10 nM
- 4-OHT concentration giving maximal frequency of PD-1 positive cells [1]: at least 50 nM
